Experiments:
Assay type in all cases: in vivo
[1] = tested on: redroot pigweed (Amaranthus retroflexus, AMARE); assay: Pre-emerge test, greenhouse herbicide activity screening; conditions: pre-emerge, 14 days after application, rating scale 0-100
Method in brief: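 Compounds in acetone were track-sprayed at 187 l/ha, 15–1000 g ai/ha, onto sandy loam pots. Pre-emerge seeds were sown one day before spraying, with surface watering afterwards. Post-emerge plants were at the 2–3 leaf stage and sprayed with 0.25% v/v non-ionic surfactant. Injury was rated 0–100 at 14 days.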

[2] = tested on: barnyardgrass (Echinochloa crus-galli, ECHCG); assay: as above; conditions: pre-emerge, 14 days after application, rating scale 0-100
Method in brief: (§1)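 Plants grown in 10 cm pots of sandy loam mix received acetone-dissolved compounds through a moving flat-fan nozzle. Doses ranged from 15 to 1000 g ai/ha. Pre-emerge pots were seeded one day earlier, post-emerge pots 8–21 days earlier. Fourteen days on, each pot was graded 0–100 for damage.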

[3] = tested on: green foxtail (Setaria viridis, SETVI); assay: as above; conditions: pre-emerge, 14 days after application, rating scale 0-100
Method in brief: as §1

[4] = tested on: ivyleaf morningglory (Ipomoea hederacea, IPOHE); assay: as above; conditions: pre-emerge, 14 days after application, rating scale 0-100
Method in brief: as §1

[5] = tested on: johnsongrass (Sorghum halepense, SORHA); assay: as above; conditions: pre-emerge, 14 days after application, rating scale 0-100
Method in brief: as §1

[6] = tested on: lambsquarters (Chenopodium album, CHEAL); assay: as above; conditions: pre-emerge, 14 days after application, rating scale 0-100
Method in brief: as §1

[7] = tested on: large crabgrass (Digitaria sanguinalis, DIGSA); assay: as above; conditions: pre-emerge, 14 days after application, rating scale 0-100
Method in brief: as §1

[8] = tested on: sicklepod (Cassia obtusifolia, CASOB); assay: as above; conditions: pre-emerge, 14 days after application, rating scale 0-100
Method in brief: as §1

[9] = tested on: velvetleaf (Abutilon theophrasti, ABUTH); assay: as above; conditions: pre-emerge, 14 days after application, rating scale 0-100
Method in brief: as §1

[10] = tested on: field corn (Zea mays L., var. Dekalb 535, CORN); assay: Pre-emerge test, crop safety; conditions: pre-emerge, 14 days after application, rating scale 0-100
Method in brief: (§2)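 Sandy loam pots; pre-emerge: sown 1 d pre-spray, surface-watered after, then bottom-watered. Post-emerge: sown 8–21 d before, 2–3 leaf stage, + 0.25% v/v NIS, bottom-watered. Acetone, 187 l/ha track spray, 15–1000 g ai/ha. 0–100 injury score, day 14.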

[11] = tested on: upland rice (Oryza sp., var. Tebonnet, RICE); assay: Pre-emerge test, crop safety; conditions: pre-emerge, 14 days after application, rating scale 0-100
Method in brief: as §2

[12] = tested on: barnyardgrass (Echinochloa crus-galli, ECHCG); assay: Post-emerge test, greenhouse herbicide activity screening; conditions: post-emerge, 14 days after application, rating scale 0-100
Method in brief: as §2

[13] = tested on: green foxtail (Setaria viridis, SETVI); assay: as above; conditions: post-emerge, 14 days after application, rating scale 0-100
Method in brief: as §2

[14] = tested on: ivyleaf morningglory (Ipomoea hederacea, IPOHE); assay: as above; conditions: post-emerge, 14 days after application, rating scale 0-100
Method in brief: as §2

[15] = tested on: johnsongrass (Sorghum halepense, SORHA); assay: as above; conditions: post-emerge, 14 days after application, rating scale 0-100
Method in brief: as §2

[16] = tested on: lambsquarters (Chenopodium album, CHEAL); assay: as above; conditions: post-emerge, 14 days after application, rating scale 0-100
Method in brief: as §2

[17] = tested on: large crabgrass (Digitaria sanguinalis, DIGSA); assay: as above; conditions: post-emerge, 14 days after application, rating scale 0-100
Method in brief: as §2

[18] = tested on: redroot pigweed (Amaranthus retroflexus, AMARE); assay: as above; conditions: post-emerge, 14 days after application
Method in brief: as §2

[19] = tested on: sicklepod (Cassia obtusifolia, CASOB); assay: as above; conditions: post-emerge, 14 days after application, rating scale 0-100
Method in brief: as §2

[20] = tested on: velvetleaf (Abutilon theophrasti, ABUTH); assay: as above; conditions: post-emerge, 14 days after application, rating scale 0-100
Method in brief: as §2

[21] = tested on: field corn (Zea mays L., var. Dekalb 535, CORN); assay: Post-emerge test, crop safety; conditions: post-emerge, 14 days after application, rating scale 0-100
Method in brief: (§3)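 Each test used a mechanized track sprayer delivering 187 l/ha of acetone solution at 15–1000 g ai/ha. Post-emerge foliage at 2–3 leaves was treated with added 0.25% v/v non-ionic surfactant and bottom-watered only. Injury was assessed on day 14, where 100 means total kill.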

[22] = tested on: upland rice (Oryza sp., var. Tebonnet, RICE); assay: Post-emerge test, crop safety; conditions: post-emerge, 14 days after application, rating scale 0-100
Method in brief: as §3

CCOC(=O)C(Cl)Cc1cc(Cl)cc(F)c1-n1c(=O)cc(C(F)(F)F)n(C)c1=O (centres unmarked) [14-60]
phytotoxicity rating AMARE ([1]; 63 g ai/ha): 100
phytotoxicity rating AMARE ([1]; 250 g ai/ha): 100
phytotoxicity rating ECHCG ([2]; 63 g ai/ha): 0
phytotoxicity rating ECHCG ([2]; 250 g ai/ha): 20
phytotoxicity rating SETVI ([3]; 63 g ai/ha): 10
phytotoxicity rating SETVI ([3]; 250 g ai/ha): 60
phytotoxicity rating IPOHE ([4]; 63 g ai/ha): 90
phytotoxicity rating IPOHE ([4]; 250 g ai/ha): 100
phytotoxicity rating SORHA ([5]; 63 g ai/ha): 0
phytotoxicity rating SORHA ([5]; 250 g ai/ha): 10
phytotoxicity rating CHEAL ([6]; 63 g ai/ha): 100
phytotoxicity rating CHEAL ([6]; 250 g ai/ha): 100
phytotoxicity rating DIGSA ([7]; 63 g ai/ha): 0
phytotoxicity rating DIGSA ([7]; 250 g ai/ha): 30
phytotoxicity rating CASOB ([8]; 63 g ai/ha): 0
phytotoxicity rating CASOB ([8]; 250 g ai/ha): 0
phytotoxicity rating ABUTH ([9]; 63 g ai/ha): 100
phytotoxicity rating ABUTH ([9]; 250 g ai/ha): 100
phytotoxicity rating CORN ([10]; 63 g ai/ha): 0
phytotoxicity rating CORN ([10]; 250 g ai/ha): 0
phytotoxicity rating RICE ([11]; 63 g ai/ha): 0
phytotoxicity rating RICE ([11]; 250 g ai/ha): 20
Post-emerge Herbicidal Activity ECHCG (phytotoxicity rating) ([12]; 63 g ai/ha): 50
Post-emerge Herbicidal Activity ECHCG (phytotoxicity rating) ([12]; 250 g ai/ha): 75
Post-emerge Herbicidal Activity SETVI (phytotoxicity rating) ([13]; 63 g ai/ha): 20
Post-emerge Herbicidal Activity SETVI (phytotoxicity rating) ([13]; 250 g ai/ha): 30
Post-emerge Herbicidal Activity IPOHE (phytotoxicity rating) ([14]; 63 g ai/ha): 100
Post-emerge Herbicidal Activity IPOHE (phytotoxicity rating) ([14]; 250 g ai/ha): 100
Post-emerge Herbicidal Activity SORHA (phytotoxicity rating) ([15]; 63 g ai/ha): 20
Post-emerge Herbicidal Activity SORHA (phytotoxicity rating) ([15]; 250 g ai/ha): 50
Post-emerge Herbicidal Activity CHEAL (phytotoxicity rating) ([16]; 63 g ai/ha): 99
Post-emerge Herbicidal Activity CHEAL (phytotoxicity rating) ([16]; 250 g ai/ha): 100
Post-emerge Herbicidal Activity DIGSA (phytotoxicity rating) ([17]; 63 g ai/ha): 10
Post-emerge Herbicidal Activity DIGSA (phytotoxicity rating) ([17]; 250 g ai/ha): 60
Post-emerge Herbicidal Activity AMARE (phytotoxicity rating) ([18]; 63 g ai/ha, rating scale 0-100 (0 no damage, 100 complete death)): 70
Post-emerge Herbicidal Activity AMARE (phytotoxicity rating) ([18]; 250 g ai/ha, rating scale 0-100): 100
Post-emerge Herbicidal Activity CASOB (phytotoxicity rating) ([19]; 63 g ai/ha): 40
Post-emerge Herbicidal Activity CASOB (phytotoxicity rating) ([19]; 250 g ai/ha): 70
Post-emerge Herbicidal Activity ABUTH (phytotoxicity rating) ([20]; 63 g ai/ha): 100
Post-emerge Herbicidal Activity ABUTH (phytotoxicity rating) ([20]; 250 g ai/ha): 100
Post-emerge Herbicidal Activity CORN (crop damage rating) ([21]; 63 g ai/ha): 0
Post-emerge Herbicidal Activity CORN (crop damage rating) ([21]; 250 g ai/ha): 60
Post-emerge Herbicidal Activity RICE (crop damage rating) ([22]; 63 g ai/ha): 10
Post-emerge Herbicidal Activity RICE (crop damage rating) ([22]; 250 g ai/ha): 20
